Source: the supplement of paper PMC10307832

Key:
Assay in all cases: relative viability (nuclei count vs DMSO), 5 days (fraction); higher = more cells survive
[1] = test system: NCI-H1792
Summary of the method: (§1)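 Dosing by pin tool came one day after lung cancer cell lines were seeded in 1536-well plates, using either one drug or a fixed anchor-drug dose plus five library-drug doses (not always all listed) in √10 steps. After 5 days, nuclei were counted on 4× images. Relative viability is treated-well nuclei count divided by vehicle-well nuclei count, and values are medians of duplicate plates.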

[2] = test system: EKVX
Summary of the method: as §1

[3] = test system: EMC-BAC-2
Summary of the method: as §1

[4] = test system: ChaGo-K-1
Summary of the method: as §1

[5] = test system: SK-MES-1
Summary of the method: as §1

[6] = test system: NCI-H520
Summary of the method: as §1

[7] = test system: NCI-H1975
Summary of the method: as §1

[8] = test system: PC-3 [JPC-3]
Summary of the method: as §1

[9] = test system: NCI-H1755
Summary of the method: as §1

[10] = test system: NCI-H1563
Summary of the method: as §1

[11] = test system: NCI-H596
Summary of the method: as §1

[12] = test system: LK-2
Summary of the method: as §1

[13] = test system: H3255
Summary of the method: as §1

[14] = test system: LOU-NH91
Summary of the method: as §1

[15] = test system: NCI-H1666
Summary of the method: as §1

[16] = test system: HCC-366
Summary of the method: as §1

[17] = test system: COR-L 105
Summary of the method: as §1

[18] = test system: A-427
Summary of the method: as §1

[19] = test system: NCI-H441
Summary of the method: as §1

[20] = test system: NCI-H1734
Summary of the method: as §1

[21] = test system: NCI-H2170
Summary of the method: as §1

[22] = test system: NCI-H23
Summary of the method: as §1

Oc1nc(-c2ccc(C(F)(F)F)cc2)nc2c1CSCC2 [XAV939] + C[C@@H](Oc1cc(-c2cnn(C3CCNCC3)c2)cnc1N)c1c(Cl)ccc(F)c1Cl [Crizotinib] (partner 1 µM)
relative viability ([1]; first compound 0.08 µM): 0.994
relative viability ([1]; first compound 0.253 µM): 0.896
relative viability ([1]; first compound 0.8 µM): 0.977
relative viability ([1]; first compound 2.53 µM): 0.902
relative viability ([2]; first compound 0.08 µM): 1.09
relative viability ([2]; first compound 0.253 µM): 0.95
relative viability ([2]; first compound 0.8 µM): 0.975
relative viability ([2]; first compound 2.53 µM): 0.586
relative viability ([3]; first compound 0.08 µM): 0.821
relative viability ([3]; first compound 0.253 µM): 0.63
relative viability ([3]; first compound 0.8 µM): 0.623
relative viability ([3]; first compound 2.53 µM): 0.438
relative viability ([4]; first compound 0.08 µM): 1.28
relative viability ([4]; first compound 0.253 µM): 1.16
relative viability ([4]; first compound 0.8 µM): 1.07
relative viability ([4]; first compound 2.53 µM): 0.883
relative viability ([5]; first compound 0.08 µM): 1.02
relative viability ([5]; first compound 0.253 µM): 0.934
relative viability ([5]; first compound 0.8 µM): 0.882
relative viability ([5]; first compound 2.53 µM): 0.842
relative viability ([6]; first compound 0.08 µM): 0.778
relative viability ([6]; first compound 0.253 µM): 0.665
relative viability ([6]; first compound 0.8 µM): 0.668
relative viability ([6]; first compound 2.53 µM): 0.68
relative viability ([7]; first compound 0.08 µM): 1.07
relative viability ([7]; first compound 0.253 µM): 0.666
relative viability ([7]; first compound 0.8 µM): 0.919
relative viability ([7]; first compound 2.53 µM): 0.737
relative viability ([8]; first compound 0.08 µM): 0.936
relative viability ([8]; first compound 0.253 µM): 0.903
relative viability ([8]; first compound 0.8 µM): 0.966
relative viability ([8]; first compound 2.53 µM): 0.92
relative viability ([9]; first compound 0.08 µM): 0.832
relative viability ([9]; first compound 0.253 µM): 0.731
relative viability ([9]; first compound 0.8 µM): 0.778
relative viability ([9]; first compound 2.53 µM): 0.762
relative viability ([10]; first compound 0.08 µM): 0.834
relative viability ([10]; first compound 0.253 µM): 0.846
relative viability ([10]; first compound 0.8 µM): 0.789
relative viability ([10]; first compound 2.53 µM): 0.697
relative viability ([11]; first compound 0.08 µM): 1.12
relative viability ([11]; first compound 0.253 µM): 0.955
relative viability ([11]; first compound 0.8 µM): 1.06
relative viability ([11]; first compound 2.53 µM): 0.93
relative viability ([12]; first compound 0.08 µM): 0.178
relative viability ([12]; first compound 0.253 µM): 0.224
relative viability ([12]; first compound 0.8 µM): 0.181
relative viability ([12]; first compound 2.53 µM): 0.207
relative viability ([13]; first compound 0.08 µM): 0.942
relative viability ([13]; first compound 0.253 µM): 0.873
relative viability ([13]; first compound 0.8 µM): 0.725
relative viability ([13]; first compound 2.53 µM): 0.7
relative viability ([14]; first compound 0.08 µM): 0.719
relative viability ([14]; first compound 0.253 µM): 0.708
relative viability ([14]; first compound 0.8 µM): 0.734
relative viability ([14]; first compound 2.53 µM): 0.699
relative viability ([15]; first compound 0.08 µM): 0.971
relative viability ([15]; first compound 0.253 µM): 0.64
relative viability ([15]; first compound 0.8 µM): 0.781
relative viability ([15]; first compound 2.53 µM): 0.473
relative viability ([16]; first compound 0.08 µM): 0.66
relative viability ([16]; first compound 0.253 µM): 0.56
relative viability ([16]; first compound 0.8 µM): 0.52
relative viability ([16]; first compound 2.53 µM): 0.466
relative viability ([17]; first compound 0.08 µM): 0.821
relative viability ([17]; first compound 0.253 µM): 0.762
relative viability ([17]; first compound 0.8 µM): 0.698
relative viability ([17]; first compound 2.53 µM): 0.621
relative viability ([18]; first compound 0.08 µM): 0.918
relative viability ([18]; first compound 0.253 µM): 0.909
relative viability ([18]; first compound 0.8 µM): 0.794
relative viability ([18]; first compound 2.53 µM): 0.729
relative viability ([19]; first compound 0.08 µM): 0.986
relative viability ([19]; first compound 0.253 µM): 0.724
relative viability ([19]; first compound 0.8 µM): 0.66
relative viability ([19]; first compound 2.53 µM): 0.779
relative viability ([20]; first compound 0.08 µM): 0.725
relative viability ([20]; first compound 0.253 µM): 0.637
relative viability ([20]; first compound 0.8 µM): 0.662
relative viability ([20]; first compound 2.53 µM): 0.619
relative viability ([21]; first compound 0.08 µM): 1.28
relative viability ([21]; first compound 0.253 µM): 1.01
relative viability ([21]; first compound 0.8 µM): 1.02
relative viability ([21]; first compound 2.53 µM): 0.921
relative viability ([22]; first compound 0.08 µM): 0.502
relative viability ([22]; first compound 0.253 µM): 0.425
relative viability ([22]; first compound 0.8 µM): 0.436
relative viability ([22]; first compound 2.53 µM): 0.426
